Where a SMILES comes first, the peptide text is derived from it. [ ]: non-standard residue; d: D form. NMeF = CN[C@@H](Cc1ccccc1)C(=O)O; dNMeF = CN[C@H](Cc1ccccc1)C(=O)O; NMeL = CN[C@@H](CC(C)C)C(=O)O; dNMeL = CN[C@H](CC(C)C)C(=O)O; NMeV = CN[C@H](C(=O)O)C(C)C; NMeA = CN[C@@H](C)C(=O)O; dNMeA = CN[C@H](C)C(=O)O; Sar = CNCC(=O)O
Details: PAMPA

| SMILES | PAMPA_Papp_Avg (apparent permeability) |
| --- | --- |
| CC[C@@H](C)[C@H]1NC(=O)[C@H](Cc2ccccc2)N(C)C(=O)[C@@H](CC(C)C)N(C)C(=O)[C@H](C(C)C)NC(=O)[C@H](C)NC(=O)[C@@H]2CCCN2C(=O)[C@H](CC(C)C)N(C)C(=O)[C@@H](Cc2ccccc2)N(C)C(=O)[C@H](C)N(C)C(=O)[C@H](C)N(C)C1=O [Design D10.56, *f*LPAV*l*Fi*A*A] (cyclo(AV[dNMeL][NMeF][dI][NMeA][NMeA][dNMeF][NMeL]P)) | 9.02e-06 cm/s |
| CC(C)C[C@@H]1NC(=O)[C@@H](CC(C)C)N(C)C(=O)[C@@H]2CCCN2C(=O)[C@H](CC(C)C)N(C)C(=O)[C@@H](C)NC(=O)[C@@H](CC(C)C)N(C)C(=O)[C@@H]2CCCN2C(=O)CN(C)C(=O)[C@H](CC(C)C)N(C)C(=O)[C@H](Cc2ccccc2)NC1=O [Design D10.57, *L*GP*la*LP*lLF] (cyclo(F[NMeL][Sar]P[dNMeL][dA][NMeL]P[dNMeL]L)) | 3.05e-06 cm/s |
| C[C@H]1NC(=O)[C@@H](Cc2ccccc2)NC(=O)[C@H](Cc2ccccc2)N(C)C(=O)[C@H](Cc2ccccc2)N(C)C(=O)[C@@H](Cc2ccccc2)NC(=O)[C@H]2CCCN2C(=O)CNC(=O)[C@@H](C)NC(=O)[C@@H]2CCCN2C(=O)[C@@H](Cc2ccccc2)NC1=O [Design D10.62, aGpf*F*FfafP] (cyclo(G[dP][dF][NMeF][NMeF][dF][dA][dF]P[dA])) | 4.23e-06 cm/s |
| CC[C@@H](C)[C@H]1NC(=O)[C@@H]2CCCN2C(=O)[C@@H]([C@H](C)CC)NC(=O)[C@@H](C)N(C)C(=O)[C@H](CC(C)C)NC(=O)[C@@H](Cc2ccccc2)NC(=O)[C@H](CC(C)C)N(C)C(=O)[C@H]2CCCN2C(=O)[C@@H](CC(C)C)NC(=O)[C@H](CC(C)C)NC(=O)[C@H]2CCCN2C1=O [Design D11.1, ipLlp*LfL*aiP] (cyclo(L[dL][dP][NMeL][dF]L[dNMeA][dI]P[dI][dP])) | 3.48e-06 cm/s |
| CC[C@@H](C)[C@H]1NC(=O)[C@@H](CC(C)C)NC(=O)[C@H](C(C)C)NC(=O)[C@@H](CC(C)C)N(C)C(=O)[C@@H]2CCCN2C(=O)[C@H](C)NC(=O)[C@H](CC(C)C)N(C)C(=O)[C@H]2CCCN2C(=O)[C@H](C)N(C)C(=O)[C@@H](CC(C)C)N(C)C(=O)[C@@H]2CCCN2C1=O [Design D11.5, AP*lVliP*l*Ap*L] (cyclo(AP[dNMeL]V[dL][dI]P[dNMeL][NMeA][dP][NMeL])) | 2.81e-06 cm/s |

Continued, values first:

| PAMPA_Papp_Avg (apparent permeability) | SMILES |
| --- | --- |
| 7.89e-07 cm/s | CC[C@H](C)[C@@H]1NC(=O)[C@H](C(C)C)N(C)C(=O)[C@H]2CCCN2C(=O)[C@H]([C@@H](C)CC)NC(=O)[C@@H](CC(C)C)N(C)C(=O)[C@@H](C)NC(=O)[C@@H]2CCCN2C(=O)[C@H]2CCCN2C(=O)[C@H](CC(C)C)NC(=O)[C@@H](Cc2ccccc2)NC(=O)[C@H](CC(C)C)NC(=O)[C@H]2CCCN2C1=O [Design D12.3, p*VIpLfLpPa*lI] (cyclo([dA][dNMeL]I[dP][NMeV]I[dP]L[dF]L[dP]P)) |
| 1.27e-06 cm/s | CC(C)C[C@@H]1NC(=O)[C@@H](CC(C)C)N(C)C(=O)[C@@H](CC(C)C)N(C)C(=O)[C@@H](CC(C)C)N(C)C(=O)[C@H](CC(C)C)NC(=O)[C@@H]2CCCN2C(=O)[C@H]2CCCN2C(=O)[C@H](Cc2ccccc2)NC1=O [SEQ ID NO 47, FpPL*l*l*lL] (cyclo(L[dNMeL][dNMeL][dNMeL]LF[dP]P)) |

From patent publication US20260274895A1, “DE NOVO DESIGNED MEMBRANE-TRAVERSING AND ORALLY BIOAVAILABLE MACROCYCLES” (UNIVERSITY OF WASHINGTON, priority 2022, published 2026)
